Test results as given in US10858360B2, “Tricyclic gyrase inhibitors” (priority 2011, dated 2020).
Converted amounts (≈) assume the structure as drawn.

How the values were obtained:
S. aureus ATCC 13709 = test: MIC, S. aureus ATCC 13709 (Alamar Blue broth microdilution); format: cell-based; settings: Alamar Blue read after overnight incubation at 35° C.; for MIC: Staphylococcus aureus, ATCC13709, S. aureus; for MIC Sa: S. aureus
E. coli ATCC 25922 = test: MIC, E. coli ATCC 25922; format: cell-based; settings: Alamar Blue read after overnight incubation at 35° C.; for MIC: Escherichia coli, ATCC25922, E. coli; for MIC Ec: E. coli

CNc1cc(F)cc2c1[nH]c1nc(Oc3cncc(Cl)c3)nc(N3CC(N)C3)c12 [4.277]
MIC (S. aureus ATCC 13709): ≤ 0.5 µg/mL | MIC (E. coli ATCC 25922): ≤ 0.5 µg/mL

CNc1cc(F)cc2c1[nH]c1nc(Oc3cnc(C)nc3)nc(N3CC4(CCCN4)C3)c12 [4.119]
MIC Sa (S. aureus ATCC 13709): ≤0.5 µg/mL | MIC Ec (E. coli ATCC 25922): 2 µg/mL (≈ 4.6 µM)

CCc1cc(F)cc2c1[nH]c1nc(Oc3cnc(C)nc3)nc(N3CC(N)C4(CC4)C3)c12 (stereo not drawn) [2.3]
MIC (S. aureus ATCC 13709): 1 µg/mL (≈ 2.31 µM) | MIC (E. coli ATCC 25922): 16 µg/mL (≈ 36.9 µM)

NC1C2CN(c3nc(Sc4cnc5cccnc5c4)nc4[nH]c5c(NC6CC6)cc(F)cc5c34)CC12 (stereo not drawn) [1.1]
MIC (S. aureus ATCC 13709): 4 µg/mL (≈ 8.02 µM) | MIC (E. coli ATCC 25922): 64 µg/mL (≈ 128 µM)

CNc1cc(F)cc2c1[nH]c1nc(Oc3cnc(C)nc3)nc(-c3cc(CN)ccc3F)c12 [4.421]
MIC (S. aureus ATCC 13709): 2 µg/mL (≈ 4.47 µM) | MIC (E. coli ATCC 25922): 8 µg/mL (≈ 17.9 µM)

CNc1cc(F)cc2c1[nH]c1nc(Oc3cncnc3)nc(N3C[C@H](N)C[C@H]3C)c12 [4.029]
MIC (S. aureus ATCC 13709): 4 µg/mL (≈ 9.79 µM) | MIC (E. coli ATCC 25922): 16 µg/mL (≈ 39.2 µM)

CNc1cccc2c1[nH]c1nc(Oc3cncc(C#N)c3)nc(N3CCC4(CC4N)C3)c12 (stereo not drawn) [3.40]
MIC (S. aureus ATCC 13709): ≤ 0.5 µg/mL | MIC (E. coli ATCC 25922): 1 µg/mL (≈ 2.34 µM)

CNc1cc(F)cc2c1[nH]c1nc(Oc3cnc(C4CC4)nc3)nc(N3CC4C[C@@H](N)C4C3)c12 (stereo partly drawn) [4.254]
MIC (S. aureus ATCC 13709): ≤ 0.5 µg/mL | MIC (E. coli ATCC 25922): ≤ 0.5 µg/mL

CNc1cc(F)cc2c1[nH]c1nc(Oc3cncnc3)nc(N3C[C@H]4CC[C@@H](CN)[C@H]4C3)c12 [4.021]
MIC (S. aureus ATCC 13709): ≤ 0.5 µg/mL | MIC (E. coli ATCC 25922): 2 µg/mL (≈ 4.46 µM)

CNc1ccc(F)c2c1[nH]c1nc(Oc3cnc(N)nc3)nc(C3CC4C(N)C4C3)c12 (stereo not drawn) [6.25]
MIC (S. aureus ATCC 13709): ≤ 0.5 µg/mL | MIC (E. coli ATCC 25922): ≤ 0.5 µg/mL

CCc1ncc(Oc2nc(N3CCC4(CC4N)C3)c3c(n2)[nH]c2c(NC)cc(F)cc23)cn1 (stereo not drawn) [4.263]
MIC (S. aureus ATCC 13709): ≤ 0.5 µg/mL | MIC (E. coli ATCC 25922): ≤ 0.5 µg/mL

CNc1cc(F)cc2c1[nH]c1nc(Oc3cnc(C)nc3)nc(N3CC(N)C(C(=O)NCCN4CCOCC4)C3)c12 (stereo not drawn) [4.440]
MIC (S. aureus ATCC 13709): 16 µg/mL (≈ 28.3 µM) | MIC (E. coli ATCC 25922): > 16 µg/mL

CNc1cccc2c1[nH]c1nc(Sc3cnc4cccnc4c3)nc(N3CCN(C(=O)C4CCCO4)CC3)c12 (stereo not drawn) [1.69]
MIC (S. aureus ATCC 13709): ≤ 0.5 µg/mL | MIC (E. coli ATCC 25922): 8 µg/mL (≈ 14.8 µM)

CNc1cccc2c1[nH]c1nc(Oc3cnc(C)nc3)nc(N3C[C@H](N)C4(CC4)C3)c12 [3.49]
MIC (S. aureus ATCC 13709): ≤ 0.5 µg/mL | MIC (E. coli ATCC 25922): ≤ 0.5 µg/mL

CNc1cccc2c1[nH]c1nc(Oc3ccc[n+]([O-])c3)nc(N3CC4C(N)C4C3)c12 (stereo not drawn) [3.30]
MIC (S. aureus ATCC 13709): 16 µg/mL (≈ 39.7 µM) | MIC (E. coli ATCC 25922): 16 µg/mL (≈ 39.7 µM)

CNc1cc(F)cc2c1[nH]c1nc(Oc3cnc(C)nc3)nc(N3CC(N)C(F)C3)c12 (stereo not drawn) [4.137]
MIC Sa (S. aureus ATCC 13709): ≤0.5 µg/mL | MIC Ec (E. coli ATCC 25922): 1 µg/mL (≈ 2.35 µM)

CNc1cc(F)cc2c1[nH]c1nc(Oc3cnc(C)nc3)nc(N3CCC4(CCNC4)C3)c12 (stereo not drawn) [4.126]
MIC Sa (S. aureus ATCC 13709): ≤0.5 µg/mL | MIC Ec (E. coli ATCC 25922): 2 µg/mL (≈ 4.46 µM)

CNc1cc(F)cc2c1[nH]c1nc(Oc3cnc(C)nc3)nc(N3CC(N)C(C(=O)OC)C3)c12 (stereo not drawn) [4.437]
MIC (S. aureus ATCC 13709): ≤ 0.5 µg/mL | MIC (E. coli ATCC 25922): 1 µg/mL (≈ 2.14 µM)

Cc1cccc2c1[nH]c1nc(Sc3cnc4nccnc4c3)nc(N3CC4C(N)C4C3)c12 (stereo not drawn) [1.7]
MIC (S. aureus ATCC 13709): 4 µg/mL (≈ 9.08 µM) | MIC (E. coli ATCC 25922): > 32 µg/mL

CNc1cccc2c1[nH]c1nc(Sc3cnc4nccnc4c3)nc(N3CC[C@H](N)C3)c12 [1.15]
MIC (S. aureus ATCC 13709): 1 µg/mL (≈ 2.25 µM) | MIC (E. coli ATCC 25922): 2 µg/mL (≈ 4.51 µM)

CNc1cccc2c1[nH]c1nc(Oc3cncnc3)nc(N3CCC4(CNC4)C3)c12 [3.65]
MIC (S. aureus ATCC 13709): 8 µg/mL (≈ 19.9 µM) | MIC (E. coli ATCC 25922): 64 µg/mL (≈ 159 µM)

CNc1cc(F)cc2c1[nH]c1nc(Oc3cnc(N4CCCC4=O)nc3)nc(N3CC4C(N)C4C3)c12 (stereo not drawn) [4.345]
MIC (S. aureus ATCC 13709): ≤ 0.5 µg/mL | MIC (E. coli ATCC 25922): 2 µg/mL (≈ 4.09 µM)

CNc1cc(F)cc2c1[nH]c1nc(Oc3cnc(CC(=O)N4CC(N(C)C)C4)nc3)nc(N3C[C@H](N)C4(CC4)C3)c12 [4.373]
MIC (S. aureus ATCC 13709): 2 µg/mL (≈ 3.57 µM) | MIC (E. coli ATCC 25922): 8 µg/mL (≈ 14.3 µM)

CNc1cc(F)cc2c1[nH]c1nc(Oc3cnc(CC(=O)OC)nc3)nc(N3C[C@H](N)C4(CC4)C3)c12 [4.368]
MIC (S. aureus ATCC 13709): ≤ 0.5 µg/mL | MIC (E. coli ATCC 25922): ≤ 0.5 µg/mL

CNc1cccc2c1[nH]c1nc(Sc3cnc4ccc[n+]([O-])c4c3)nc(N3CC4C(N)C4C3)c12 (stereo not drawn) [1.49]
MIC Sa (S. aureus ATCC 13709): ≤0.5 µg/mL

CNc1cccc2c1[nH]c1nc(Sc3cnc4ccc[n+]([O-])c4c3)nc(N3CC4C(N)C4C3)c12 (stereo not drawn) [1.71]
MIC Sa (S. aureus ATCC 13709): ≤0.5 µg/mL

CNc1cccc2c1[nH]c1nc(Sc3cnc4ccc[n+]([O-])c4c3)nc(N3CC4C(N)C4C3)c12 (stereo not drawn) [1.23]
MIC Sa (S. aureus ATCC 13709): ≤0.5 µg/mL
